# Experimental data taken from patent US20100158842A1, “NATURAL SKIN WHITENER: 4-HYDROXY-OXINDOLE-3-ACETIC ACID” (SPECTRUM DYNAMICS LLC, priority 2008, published 2010).
# How the values were obtained:
# [1] = Storage stability of lyophilized powder; assay type: physicochemical; conditions: milligram quantities, under vacuum
# Text: Given these physical properties, Tasselin A has been formulated in both lotion and cream as described in the Tables III, IV, and V below.
# Solubility = assay type: physicochemical; conditions: water, methanol/ethanol
# Text: There is also disclosed here a method of making a cosmetic ingredient with the chemical composition and structure of 4-hydroxy-oxindole-3-acetic acid. The chemical compound was identified in extracts of corn tassels. In particular, seasonally aromatic corn tassels were harvested as previously described in U.S. Pat. No. 7,399,493 with particular attention to harvesting the tassel at the peak time of aroma production. They were collected simply by shaking the tassels directly into collecting sacks conveyed to the laboratory where they are immersed directly into ice-cold absolute alcohol and extracted for 24-48 hours at 0-4° C. Crude alcohol extracts have a light green color and a fragrance reminiscent of bee's wax. The extract is further clarified low speed centrifugation followed by filtration through a 0.4 micron nitrocellulose filter and the resulting sterile solution stored at −20° C. until further needed or then concentrated by vacuum rotary evaporation to obtain a slightly viscous mass. This material served as the starting point for chemical analysis. Dilutions of the ice-cold crude extract was submitted to preliminary assessment of its anti-oxidant activity. High pressure liquid chromatography (HPLC) was employed to determine the principle phenolic components of the tassel extract. […]
# [2] = DPPH* free-radical scavenging assay; conditions: 100 microgram per milliliter in ethanol; FIG. 4
# Experimental: Purified Tasselin A has been assayed and determined its free-radical scavenging activity. FIG. 4 present typical results of standardized 1,1-diphenyl-2-picrylhydrazyl radical (DPPH*) reagent test as previously described (Bonina et al, 2002). This test was previously disclosed and employed on crude corn tassel alcoholic extracts (Wille J J: U.S. Pat. No. 7,399,439). Here we confirm that purified Tasselin A has potent antioxidant activity. A 1.0 mg/ml stock solution of purified Tasselin A in ethanol was diluted with anhydrous ethanol to a final concentration of 100 microgram per milliliter and assayed in the DPPH* free-radical scavenging assay.
# human forearm skin = experiment: Inhibition of skin irritation induced by 24-hour occlusion with benzalkonium chloride; assay type: in vivo; conditions: 0.01% (100 micrograms/milliliter) co-administered with 0.4% benzalkonium chloride, volar forearm, FIG. 5
# Text: The anti-irritant activity of purified Tasselin A has been assessed by determining its ability to inhibit skin irritation induced by 24-hour occlusion of human forearm skin with a solution of 0.4% benzalkonium chloride (BC) with or without inclusion of 0.01% (100 micrograms/milliliter) of purified Tasselin A. FIG. 5 is a photograph of the volar surface of a subject forearm immediately after removal of the occlusive dressing. There are two circled skin areas: A) control site, and B) test site.
# [3] = test system: mushroom tyrosinase enzyme; experiment: Anti-tyrosinase activity assay; assay type: biochemical; conditions: 150 microgram/ml, 30 minute test end-point; FIG. 7
# Experimental: For this purpose, a modified assay method of anti-tyrosinase activity described in the literature was employed (Chang T S and Tseng M J., Mar. Sci. Technol., 14: 190-193, 2006). The assay employs mushroom tyrosinase enzyme to enzymatically convert a colorless solution tyrosine to a black melanin product. The anti-tyrosinase activity is measured by the reduction of black color development in the presence of the inhibitor, which in this instance is Tasselin A. FIG. 7 is a graph showing the inhibiting effect of two different concentrations of purified Tasselin A on tyrosinase activity as 50% reduction at a concentration of 150 microgram/ml over the 30 minute test end-point.
smiles,measurement,setting,value
"O=C(O)CC1C(=O)Nc2cccc(O)c21 (centres unmarked) [Tasselin A, 2,3-dihydro-4-hydroxy-2-oxo-1H-indole-3-acetic acid]",storage as dry powder,[1],successfully lyophilized and stored as a dry powder under vacuum for up to a year
same,solubility,Solubility,both water and methanol/ethanol soluble
same,reduction in absorbance measured at 595 nm,[2],40%
same,"visual scoring of skin irritation (swelling, erythema) at test site",human forearm skin,no swelling or redness
same,reduction of tyrosinase activity,[3],50%
